Results from patent publication US20200246465A1, “USE OF TRYPTOPHAN DERIVATIVES FOR PROTEIN FORMULATIONS” (Genentech, Inc., priority 2015, published 2020).
Values joined by “and” are separate entries in the source; they are usually repeats but may differ in a detail not shown here. Identical values can stand only once.

Legend:
Assay type in all cases: physicochemical
[1] = AAPH stress of proteins with or without NAT, site-specific Trp oxidation by LC-MS tryptic peptide mapping; details: Mab2 W53 and W106, Mab4 W52, Mab1 W103, Mab6 W103/104; 1 mM AAPH; NAT 0.05-1 mM
Description: Proteins Mab1, Mab2, and Mab3/Mab4 were dialyzed into a sodium acetate buffer (20 mM sodium acetate pH 5.5) and Mab5/Mab6 was dialyzed into a histidine-based buffer (20 mM histidine hydrochloride pH 5.5). Protein solutions were diluted to a final concentration of 1 mg/mL protein in the corresponding buffer and 1 mM 2,2′-Azobis(2-amidinopropane) dihydrochloride (AAPH) was added. N-acetyl-Trp (NAT) was added from a concentrated stock solution to each protein solution at concentrations from 0 to 5 mM. Samples were incubated at 40° C. for 16 hours followed by quenching with methionine and buffer exchange to the initial dialysis buffer plus 100 mM sucrose.
Site-specific modifications of AAPH-stressed samples of Mab2, Mab1, and Mab3/Mab4 were monitored using a microscale tryptic peptide digest followed by liquid chromatography-mass spectrometry (LC-MS) (Anderson, N. et al., Nov. 20, 2014, American Pharmaceutical Review). […]
Peptide mapping of each digested sample was performed on a Waters Acquity H-Class UHPLC coupled to a Thermo Q Exactive Plus high resolution mass spectrometry system (HRMS). […] Column effluent was monitored at 214 nm. […] The oxidation level at each site was determined by extracted ion chromatography (EIC) using the Thermo XCalibur biopharmaceutical characterization software. […]

[2] = Thermal stress of NAT in formulation buffer, RP-HPLC at 240 nm; details: elevated temperature (40° C., 5 months), His buffer, 1.0 mM NAT
Description: Histidine and non-histidine buffers containing 1.0 mM NAT were aliquoted into sterile glass vials (5 ml/vial, 6 vials per buffer). Vials were stored in a dark box at the indicated temperatures during the stress and transferred to −70° C. for storage until analysis (timepoints taken monthly for five months). Initial time points for samples of each buffer solution were transferred immediately to −70° C. Prior to analysis, the samples were thawed and diluted with Milli-Q H2O to a final NAT concentration of 0.2 mM.
NAT and NAT degradants were separated on an Agilent 1200 series HPLC or Waters H Class UPLC using an Agilent ZORBAX SB-C18 3.5 μm, 4.6×75 mm reverse phase column. Column temperature was held at 30±0.8° C. by a thermostat controller. The gradients used for HPLC and UPLC are listed in Tables 5 and 6, respectively (note: the shorter gradient on the UPLC was designed to accommodate earlier retention times and the column re-equilibration period was elongated due to the larger range of system pressure at a flow rate of 1.0 ml/min). NAT degradation products were detected at 240 nm. The standard bandwidth setting (8 nm for Agilent 1200 HPLC, 4.8 nm for Waters H-Class) was used for analysis on each instrument. The autosampler was maintained at 5±3° C. […]
Total NAT degradation for each sample was calculated by comparing NAT peak area to the control sample for each stress model (Table 7). […]

[3] = Fenton stress of NAT in formulation buffer, RP-HPLC at 240 nm; details: for % NAT degradation ± 1SD: Fenton stress (0.2 mM FeCl2, 10 ppm H2O2, 3 hours 40° C.)
Description: FeCl2 (Sigma Aldrich, 98% purity) and H2O2 (Sigma Aldrich, 30% w/w in H2O) were added to a final concentration of 0.2 mM and 10 ppm, respectively, to a histidine-containing buffer at pH 5.5 with 0.3 mM NAT ±5 mM L-Met, pH 5.5. Upon addition of H2O2 the vials were vortexed briefly and incubated for 3 hours at 40° C. Oxidation was quenched by the addition of L-Met to a final concentration of 100 mM. After the addition of the quenching solution, the final NAT concentration was 0.2 mM.
NAT and NAT degradants were separated on an Agilent 1200 series HPLC or Waters H Class UPLC using an Agilent ZORBAX SB-C18 3.5 μm, 4.6×75 mm reverse phase column. Column temperature was held at 30±0.8° C. by a thermostat controller. The gradients used for HPLC and UPLC are listed in Tables 5 and 6, respectively (note: the shorter gradient on the UPLC was designed to accommodate earlier retention times and the column re-equilibration period was elongated due to the larger range of system pressure at a flow rate of 1.0 ml/min). NAT degradation products were detected at 240 nm. The standard bandwidth setting (8 nm for Agilent 1200 HPLC, 4.8 nm for Waters H-Class) was used for analysis on each instrument. The autosampler was maintained at 5±3° C. 10 nmol of NAT and/or NAT degradants (50 μl for most samples) was injected on to the column for analysis. The chromatograms were processed using Dionex Chromeleon software.
Total NAT degradation for each sample was calculated by comparing NAT peak area to the control sample for each stress model (Table 7). NAT degradation ranged from 3% (thermal stress, non-His buffer) to 83% (ICH light stress, His buffer).

% NAT degradation ± 1SD [2]: 11.1 (n = 1) %
improvement to NAT stability by 5 mM Met (total NAT loss) ([3]; Fenton model): 25%
% NAT degradation ± 1SD ([3]; His + 5 mM Met buffer, 0.3 mM NAT): 15.2 ± 0.7 (n = 3) %
% NAT degradation ± 1SD ([3]; His buffer pH 5.5, 0.3 mM NAT): 40 ± 3 (n = 3) %
NAT degradation (loss) ([3]; Fenton stress, under all tested conditions): 30-40% and 33-41%
SMILES: CC(=O)N[C@@H](Cc1c[nH]c2ccccc12)C(=O)O [NAT, N-acetyl-tryptophan]
NAT protection from AAPH-induced oxidation of oxidation-prone tryptophan residues [1]: able to protect each tested residue from oxidation
